Measured values: ChEMBL document CHEMBL1144487 (Bioorg Med Chem, 2007)

What was measured:
[1] = Cytotoxicity against mouse 3LL cells after 5 days; format: cell-based; details: 120 h, read-out: LC50 (the source's name)
[2] = Cytotoxicity against rat K-ras transformed NRK K/1 cells after 5 days; format: cell-based; details: NRK K/1, 120 h, read-out: LC50 (the source's name)
[3] = Cytotoxicity against rat NRK 52E cells after 5 days; format: cell-based; details: read-out: LC50
[4] = Cytotoxicity against rat H-ras transformed NRK H/1.2 cells after 5 days; format: cell-based; details: NRK H/1.2, 120 h, read-out: LC50 (the source's name)
[5] = Differential index, LC50 for rat NRK 52E cells to LC50 for rat N-ras transformed NRK N/4.2 cells; format: ADME, cell-based; details: NRK 52E cells versus N-ras transformed NRK N/4.2 cells
[6] = Differential index, LC50 for rat NRK 52E cells to LC50 for rat H-ras transformed NRK H/1.2 cells; format: ADME, cell-based; details: NRK 52E cells versus H-ras transformed NRK H/1.2 cells
[7] = Differential index, LC50 for rat NRK 52E cells to LC50 for mouse 3LL cells; format: ADME, cell-based; details: NRK 52E cells versus 3LL cells
[8] = Cytotoxicity against rat N-ras transformed NRK N/4.2 cells after 5 days; format: cell-based; details: NRK N/4.2, 120 h, read-out: LC50 (the source's name)
[9] = Differential index, LC50 for rat NRK 52E cells to LC50 for rat K-ras transformed NRK K/1 cells; format: ADME, cell-based; details: NRK 52E cells versus K-ras transformed NRK K/1 cells

SMILES | CC50 [1] | CC50 [2] | CC50 at 120 h [3] | CC50 [4] | selectivity ratio [5] | selectivity ratio [6] | selectivity ratio [7] | CC50 [8] | selectivity ratio [9]
CC(=O)NC1=CC(=O)c2ccc(C(=O)O)nc2C1=O | 26 µM | > 33 µM | > 33 µM | > 31 µM | – | – | – | – | –
CCCCOC(=O)c1cc2c([nH]c3ccccc32)c(-c2ccc3c(n2)C(=O)C(NC(=O)C(C)C)=CC3=O)n1 | 0.9 µM | 0.4 µM | 0.9 µM | 0.61 µM | 1.8 | 1.5 | 1 | 0.5 µM | 2.3
CC(=O)NC1=CC(=O)c2ccc(-c3nc(C(=O)OCCC(C)C)c(C)c4c3[nH]c3ccccc34)nc2C1=O | 7.4 µM | 5 µM | 4.16 µM | 4.3 µM | 1.2 | 1.1 | 0.6 | 3.89 µM | 0.9
CCCCOC(=O)c1cc2c([nH]c3ccc(OC)cc32)c(-c2ccc3c(n2)C(=O)C(NC(C)=O)=CC3=O)n1 | > 3.3 µM | 2.2 µM | 2.5 µM | 2.1 µM | 1.1 | 1.2 | < 0.7 | 2.2 µM | 1.1
CC(=O)NC1=CC(=O)c2ccc(-c3[nH]ccc4c5ccccc5nc3-4)nc2C1=O | 3 µM | 0.44 µM | 0.4 µM | 0.4 µM | 0.8 | 1 | 0.1 | 0.49 µM | 0.9
CCCC(=O)NC1=CC(=O)c2ccc(-c3nc(C(=O)OCCC(C)C)cc4c3[nH]c3ccccc34)nc2C1=O | 2.4 µM | 0.6 µM | 1 µM | 0.37 µM | 1.5 | 2.7 | 0.4 | 0.65 µM | 1.6
CC(=O)NC1=CC(=O)c2ccc(-c3nc(C(=O)OCc4ccccc4)cc4c3[nH]c3ccccc34)nc2C1=O | > 33 µM | 9.5 µM | 9.5 µM | > 10 µM | < 0.3 | < 0.9 | < 0.3 | > 33 µM | 1
CCCCOC(=O)c1cc2c([nH]c3ccccc32)c(-c2ccc3c(n2)C(=O)C(NC(=O)CCl)=CC3=O)n1 | 2.3 µM | 0.52 µM | 0.96 µM | 0.74 µM | 0.9 | 1.3 | 0.4 | 1.05 µM | 1.8
CCCC(=O)NC1=CC(=O)c2ccc(-c3nc(C(=O)OC)cc4c3[nH]c3ccccc34)nc2C1=O | 1.3 µM | 0.5 µM | 0.7 µM | 0.66 µM | 1.1 | 1.1 | 0.5 | 0.64 µM | 1.4
CC(=O)NC1=CC(=O)c2ccc(-c3[nH]c(C(=O)O)cc4c5ccccc5nc3-4)nc2C1=O | 0.4 µM | 0.07 µM | 0.15 µM | 0.11 µM | 1.5 | 1.4 | 0.4 | 0.1 µM | 2.1
CC(=O)NC1=CC(=O)c2nc(C)ccc2C1=O | > 33 µM | > 33 µM | 21.5 µM | 20 µM | – | – | – | – | –
Cc1ccc2c(n1)C(=O)C(NC(=O)C(C)C)=CC2=O | 0.71 µM | 7.5 µM | 1.5 µM | 1.45 µM | – | – | – | 1.15 µM | –
O=Cc1ccc2c(n1)C(=O)C(NC(=O)CCl)=CC2=O | 2.1 µM | 5.8 µM | 3.6 µM | 3.4 µM | – | – | – | 3.2 µM | –
Cc1ccc2c(n1)C(=O)C(NCCCCO)=CC2=O | 3.8 µM | 13.5 µM | 10.5 µM | 10.5 µM | – | – | – | – | –
CC(C)CCOC(=O)c1cc2c([nH]c3ccccc32)c(-c2ccc3c(n2)C(=O)C(NC(=O)CCl)=CC3=O)n1 | 3.2 µM | 0.56 µM | 1.35 µM | 1.32 µM | 1.1 | 1 | 0.4 | 1.2 µM | 2.4
CC(=O)NC1=CC(=O)c2ccc(-c3nc(C(=O)OCCN(C)C)c(C)c4c3[nH]c3ccccc34)nc2C1=O | 0.48 µM | 0.06 µM | 0.09 µM | 0.09 µM | 1 | 1 | 0.2 | 0.09 µM | 1.5
NC1=CC(=O)c2ccc(C=O)nc2C1=O | 2.3 µM | 4.3 µM | 2.4 µM | 2.2 µM | – | – | – | – | –
COC(=O)c1cc2c([nH]c3ccccc32)c(-c2ccc3c(n2)C(=O)C(NC(=O)C(C)C)=CC3=O)n1 | 1.3 µM | 0.5 µM | 0.7 µM | 0.66 µM | 1.1 | 1.1 | 0.5 | 0.64 µM | 1.4
CCCC(=O)NC1=CC(=O)c2ccc(-c3nc(C(=O)OC)c(C)c4c3[nH]c3ccccc34)nc2C1=O | 0.82 µM | 0.33 µM | 0.32 µM | 0.4 µM | 0.8 | 0.8 | 0.4 | 0.42 µM | 1
Cc1ccc2c(n1)C(=O)C(NC(=O)CCl)=CC2=O | 2.3 µM | 6.6 µM | 3.2 µM | 2.8 µM | – | – | – | 3.4 µM | –
Cc1ccc2c(n1)C(=O)C(N)=CC2=O | 0.8 µM | 1.3 µM | 0.8 µM | 0.6 µM | – | – | – | – | –
CCCCOC(=O)c1cc2c([nH]c3ccccc32)c(-c2ccc3c(n2)C(=O)C(NC(=O)CCC)=CC3=O)n1 [LAV12] | 2.3 µM | 0.5 µM | 0.66 µM | 0.4 µM | 0.9 | 1.6 | 0.3 | 0.7 µM | 1.3
CC(=O)NC1=CC(=O)c2ccc(C=O)nc2C1=O | 1.2 µM | 2.6 µM | 1.3 µM | 2.5 µM | – | – | – | – | –
COC1=CC(=O)c2ccc(C)nc2C1=O | 7.4 µM | 11.8 µM | 6.9 µM | 4.2 µM | – | – | – | – | –
CCCCCCCCOC(=O)c1cc2c([nH]c3ccccc32)c(-c2ccc3c(n2)C(=O)C(NC(=O)CCl)=CC3=O)n1 | > 33 µM | 15 µM | > 33 µM | > 33 µM | 1 | – | – | > 33 µM | > 2.2
CC(=O)NC1=CC(=O)c2cc(C)cnc2C1=O | 1 µM | 1.8 µM | 1.3 µM | 1.1 µM | – | – | – | – | –
CC(C)C(=O)NC1=CC(=O)c2ccc(C=O)nc2C1=O | 1 µM | 2.15 µM | > 3.3 µM | > 3.3 µM | – | – | – | > 3.3 µM | –
